Target: Protein farnesyltransferase subunit beta/geranylgeranyltransferase type-1 subunit alpha (Bos taurus, UniProt P29702+P49355)
Assay: FTase Activity Assay
Conditions: pH 7.5; 37 °C
Description: The in vitro activity of compounds inhibiting FTase was determined by measuring the transfer of [3H]-FPP to substrate Ha-Ras-CVLS. The incorporated radioactivity was quantified by scintillation counting.

IC50 [nM] | Compound
200 | Cn1cncc1C(O)(c1ccc(Cl)cc1)c1ccc2ccn(-c3cccc4ccccc34)c2c1 (configuration not stated) [(4-chlorophenyl)(1-methyl-1H-imidazol-5-yl)[1-(naphthalen-1-yl)-1H-indol-6-yl]methanol]
36 | Cn1cncc1C(O)(c1ccc(Cl)cc1)c1ccc2ccn(-c3cccc(Cl)c3)c2c1 (configuration not stated) [(4-chlorophenyl)[1-(3-chlorophenyl)-1H-indol-6-yl](1-methyl-1H-imidazol-5-yl)methanol]

— BindingDB's records for doi:10.1016/j.bmcl.2005.03.049 (Abbott Laboratories, 2005)
